Test results from publication PMC6502651 (ChemMedChem, 2019).
Read-outs that look alike come from different tables or passages of the source.

Legend:
human HDAC1 (hHDAC1) [1] = molecular target: T1, human HDAC1 (hHDAC1) (Homo sapiens, UniProt Q13547); experiment: In vitro testing on hHDAC1
[2] = test system: P. berghei exo-erythrocytic forms; experiment: P. berghei-Luc liver stage assay; assay type: cell-based; conditions: for Selectivity index (SI) = (mammalian cell IC50)/(Pb EEF IC50): HepG2 vs Pb EEF; for IC50: Plasmodium berghei, 48 h, read-out: Pb EEF IC50
HepG2 cells = experiment: HepG2 cytotoxicity bioluminescence assay; assay type: cell-based; conditions: Homo sapiens, HepG2, 48 h, read-out: IC50 (HepG2)
human HDAC6 (hHDAC6) = molecular target: T2, human HDAC6 (hHDAC6) (Homo sapiens, UniProt Q9UBN7); experiment: In vitro testing on hHDAC6
T2 sequence (Q9UBN7 1-1215): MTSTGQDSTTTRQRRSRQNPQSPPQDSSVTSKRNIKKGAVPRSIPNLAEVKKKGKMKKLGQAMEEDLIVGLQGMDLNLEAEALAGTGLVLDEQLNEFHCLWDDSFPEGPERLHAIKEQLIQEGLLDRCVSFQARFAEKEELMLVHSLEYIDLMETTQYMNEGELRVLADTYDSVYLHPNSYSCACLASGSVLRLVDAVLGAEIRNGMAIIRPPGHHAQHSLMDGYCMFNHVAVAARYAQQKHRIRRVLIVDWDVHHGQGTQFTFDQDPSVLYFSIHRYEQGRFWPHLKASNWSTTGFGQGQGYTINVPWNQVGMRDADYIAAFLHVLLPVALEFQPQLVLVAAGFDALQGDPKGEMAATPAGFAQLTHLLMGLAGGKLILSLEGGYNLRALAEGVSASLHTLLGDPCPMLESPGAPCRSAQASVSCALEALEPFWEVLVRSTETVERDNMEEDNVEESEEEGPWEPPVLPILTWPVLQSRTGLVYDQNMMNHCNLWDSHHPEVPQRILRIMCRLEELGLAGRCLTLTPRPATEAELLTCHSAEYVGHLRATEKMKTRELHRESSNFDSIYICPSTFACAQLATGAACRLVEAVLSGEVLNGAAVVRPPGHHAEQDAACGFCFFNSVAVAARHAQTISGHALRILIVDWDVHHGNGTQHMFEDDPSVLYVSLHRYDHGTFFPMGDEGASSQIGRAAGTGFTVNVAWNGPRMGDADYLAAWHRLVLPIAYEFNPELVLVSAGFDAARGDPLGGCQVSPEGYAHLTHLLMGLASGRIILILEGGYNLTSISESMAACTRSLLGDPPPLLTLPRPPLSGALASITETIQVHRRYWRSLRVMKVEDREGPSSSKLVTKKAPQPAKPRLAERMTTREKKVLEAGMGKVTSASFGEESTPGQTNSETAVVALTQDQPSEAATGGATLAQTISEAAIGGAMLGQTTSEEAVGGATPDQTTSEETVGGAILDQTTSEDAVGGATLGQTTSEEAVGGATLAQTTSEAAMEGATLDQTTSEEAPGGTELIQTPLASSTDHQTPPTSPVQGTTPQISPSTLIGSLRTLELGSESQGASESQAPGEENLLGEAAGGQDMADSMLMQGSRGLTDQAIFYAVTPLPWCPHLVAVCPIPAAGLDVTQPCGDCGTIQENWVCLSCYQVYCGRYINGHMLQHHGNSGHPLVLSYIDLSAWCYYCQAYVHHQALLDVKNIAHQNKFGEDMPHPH

[3] = test system: mature stage V P. falciparum gametocytes; experiment: Gametocytocidal activity; assay type: cell-based; conditions: Plasmodium falciparum, NF54, 48 h, read-out: Pf stage V gametocytes IC50
[4] = test system: 3D7 line of P. falciparum; experiment: P. falciparum asexual intraerythrocytic growth inhibition; assay type: cell-based; conditions: for IC50: Plasmodium falciparum
human HDAC1 (hHDAC1) [5] = molecular target: T1, human HDAC1 (hHDAC1); conditions: read-out: hHDAC1 IC50; reference HDACi; ref [22]–[23]; cited from earlier work
P. falciparum histone H4 = experiment: Protein hyperacetylation assay; assay type: cell-based; conditions: trophozoite-stage Pf 3D7, 3 h, 5x IC50
[6] = 3D7, read-out: IC50 (Pf3D7), asexual intraerythrocytic stage P. falciparum 3D7

T1 sequence (Q13547 whole entry): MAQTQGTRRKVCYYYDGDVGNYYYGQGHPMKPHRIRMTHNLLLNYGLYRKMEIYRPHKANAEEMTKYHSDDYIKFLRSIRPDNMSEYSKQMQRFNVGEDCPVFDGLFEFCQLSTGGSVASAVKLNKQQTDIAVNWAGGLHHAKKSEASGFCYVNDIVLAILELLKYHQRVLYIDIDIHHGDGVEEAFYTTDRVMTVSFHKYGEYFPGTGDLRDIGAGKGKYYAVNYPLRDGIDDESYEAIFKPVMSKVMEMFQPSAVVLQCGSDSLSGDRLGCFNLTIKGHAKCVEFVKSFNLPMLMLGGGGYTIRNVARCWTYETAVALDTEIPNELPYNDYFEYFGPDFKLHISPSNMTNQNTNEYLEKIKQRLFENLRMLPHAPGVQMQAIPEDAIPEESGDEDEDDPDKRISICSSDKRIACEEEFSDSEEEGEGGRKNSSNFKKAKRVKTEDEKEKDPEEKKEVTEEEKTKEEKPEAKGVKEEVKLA

| SMILES | IC50 (human HDAC1 (hHDAC1) [1]) | Selectivity index (SI) = (mammalian cell IC50)/(Pb EEF IC50) [2] | IC50 [2] | IC50 (HepG2 cells) | IC50 (human HDAC6 (hHDAC6)) | Selectivity index (SI) = hHDAC1/hHDAC6 (human HDAC6 (hHDAC6)) | IC50 [3] | IC50 [4, 6] | Selectivity index (SI) = (mammalian cell IC50)/(P. falciparum IC50) ([4]; HepG2 vs Pf3D7) | IC50 (human HDAC1 (hHDAC1) [5]) | histone acetylation compared to the vehicle control (in words) (P. falciparum histone H4) | IC50 ([4]; 3D7, read-out: IC50 (Pf3D7)) |
| --- | --- | --- | --- | --- | --- | --- | --- | --- | --- | --- | --- | --- |
| CN(C)c1ccc(C(=O)N(Cc2ccc(C(=O)NO)cc2)C(C)(C)C(=O)NC2CCCCC2)cc1 [Compound 2c, N-(1-(Cyclohexylamino)-2-methyl-1-oxopropan-2-yl)-4-(dimethylamino)-N-(4-(hydroxycarbamoyl)benzyl)benzamide] | 450 nM | >3 | 20100 nM | > 50000 nM | 89 nM | 5 | 16300 nM | 95 nM | – | – | – | – |
| CNC(=O)CN(Cc1ccc(C(=O)NO)cc1)C(=O)c1cc(C)cc(C)c1 [Compound 2s, N-(4-(Hydroxycarbamoyl)benzyl)-3,5-dimethyl-N-(2-(methylamino)-2-oxoethyl)benzamide] | 290 nM | 7 | 7170 nM | 48000 nM | 44 nM | 7 | 16800 nM | 54 nM | 889 | – | – | – |
| O=C(NO)c1ccc(CC(=O)N(CCO)c2ccccc2)cc1 [HPOB] | – | – | – | – | – | – | – | – | – | 2100 nM | – | – |
| O=C(CCCCCCC(=O)Nc1ccccc1)NO [SAHA, vorinostat, reference compound] | – | – | – | – | – | – | – | – | – | – | significantly increased acetylation | 170 nM |
